Data reported in the kinase profiling compilation of Christmann-Franck et al. (2016).

Legend:
Experiment in all cases: KINOMEscan competition binding
Details in all cases: compound 10.0 µM
[1] = test system: ABL1 (human), P00519 [H396P]
[2] = target: AKT3 (human) (UniProt Q9Y243)
[3] = target: AURKA (human) (UniProt O14965)
[4] = target: CAMK2G (human) (UniProt Q13555)
[5] = target: CDK8 (human) (UniProt P49336)
[6] = target: CSNK1A1L (human) (UniProt Q8N752)
[7] = target: CSNK1D (human) (UniProt P48730)
[8] = target: CSNK2A1 (human) (UniProt P68400)
[9] = target: FGFR4 (human) (UniProt P22455)
[10] = target: FLT3 (human) (UniProt P36888)
[11] = target: FRK (human) (UniProt P42685)
Chain of FRK (human) (P42685 whole entry, looked up): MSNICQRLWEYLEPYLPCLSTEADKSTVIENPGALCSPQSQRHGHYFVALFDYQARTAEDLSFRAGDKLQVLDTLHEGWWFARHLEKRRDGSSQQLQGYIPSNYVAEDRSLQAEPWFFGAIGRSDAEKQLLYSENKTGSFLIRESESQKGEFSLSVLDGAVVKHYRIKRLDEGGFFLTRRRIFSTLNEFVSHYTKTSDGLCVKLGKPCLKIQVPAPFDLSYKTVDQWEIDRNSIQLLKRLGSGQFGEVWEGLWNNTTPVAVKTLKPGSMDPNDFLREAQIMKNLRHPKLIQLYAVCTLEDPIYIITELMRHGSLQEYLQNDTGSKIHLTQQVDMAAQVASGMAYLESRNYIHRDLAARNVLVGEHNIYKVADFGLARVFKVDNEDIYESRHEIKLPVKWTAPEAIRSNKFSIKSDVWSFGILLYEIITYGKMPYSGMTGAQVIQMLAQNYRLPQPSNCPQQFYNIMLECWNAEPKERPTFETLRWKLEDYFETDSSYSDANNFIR

[12] = target: GSK3B (human) (UniProt P49841)
[13] = target: HUNK (human) (UniProt P57058)
[14] = target: JAK1 JH1 catalytic (human) (UniProt P23458)
[15] = target: JAK2 JH1 catalytic (human) (UniProt O60674)
[16] = test system: KIT (human), P10721 [L576P]
[17] = target: MAP2K2 (human) (UniProt P36507)
Chain of MAP2K2 (human) (P36507 whole entry, looked up): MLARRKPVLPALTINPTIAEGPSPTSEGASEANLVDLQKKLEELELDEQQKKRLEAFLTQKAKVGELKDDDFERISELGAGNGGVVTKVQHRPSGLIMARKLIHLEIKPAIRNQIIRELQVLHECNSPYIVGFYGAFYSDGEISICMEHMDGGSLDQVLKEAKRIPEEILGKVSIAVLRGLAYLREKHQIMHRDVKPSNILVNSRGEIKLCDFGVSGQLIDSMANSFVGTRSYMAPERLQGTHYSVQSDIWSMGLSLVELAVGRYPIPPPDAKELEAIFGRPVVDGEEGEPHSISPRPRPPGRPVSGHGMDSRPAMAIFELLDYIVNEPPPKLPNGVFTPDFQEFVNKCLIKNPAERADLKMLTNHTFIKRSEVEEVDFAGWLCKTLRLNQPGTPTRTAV

[18] = target: MAP3K5 (human) (UniProt Q99683)
[19] = target: MAPK6 (human) (UniProt Q16659)
[20] = target: MAPK7 (human) (UniProt Q13164)
[21] = target: MELK (human) (UniProt Q14680)
[22] = target: NEK5 (human) (UniProt Q6P3R8)
Chain of NEK5 (human) (Q6P3R8 whole entry, looked up): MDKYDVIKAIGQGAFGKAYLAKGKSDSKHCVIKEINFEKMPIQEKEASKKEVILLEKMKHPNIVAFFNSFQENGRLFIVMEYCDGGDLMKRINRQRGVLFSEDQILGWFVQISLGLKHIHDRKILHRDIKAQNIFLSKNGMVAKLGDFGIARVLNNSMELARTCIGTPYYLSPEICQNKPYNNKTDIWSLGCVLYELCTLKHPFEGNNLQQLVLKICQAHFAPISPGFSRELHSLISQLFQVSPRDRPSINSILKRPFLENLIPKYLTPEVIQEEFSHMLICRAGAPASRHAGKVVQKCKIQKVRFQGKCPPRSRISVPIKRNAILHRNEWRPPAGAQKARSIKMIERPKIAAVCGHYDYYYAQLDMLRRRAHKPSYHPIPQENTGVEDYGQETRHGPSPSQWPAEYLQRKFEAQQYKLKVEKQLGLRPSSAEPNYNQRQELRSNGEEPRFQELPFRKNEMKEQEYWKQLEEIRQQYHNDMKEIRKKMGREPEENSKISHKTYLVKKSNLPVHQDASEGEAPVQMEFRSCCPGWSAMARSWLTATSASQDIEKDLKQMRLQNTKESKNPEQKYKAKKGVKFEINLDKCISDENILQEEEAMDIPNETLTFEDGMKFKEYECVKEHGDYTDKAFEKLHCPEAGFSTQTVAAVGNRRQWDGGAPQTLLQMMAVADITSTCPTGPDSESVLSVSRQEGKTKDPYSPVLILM

[23] = target: NIM1 (human) (UniProt Q8IY84)
Chain of NIM1 (human) (Q8IY84 whole entry, looked up): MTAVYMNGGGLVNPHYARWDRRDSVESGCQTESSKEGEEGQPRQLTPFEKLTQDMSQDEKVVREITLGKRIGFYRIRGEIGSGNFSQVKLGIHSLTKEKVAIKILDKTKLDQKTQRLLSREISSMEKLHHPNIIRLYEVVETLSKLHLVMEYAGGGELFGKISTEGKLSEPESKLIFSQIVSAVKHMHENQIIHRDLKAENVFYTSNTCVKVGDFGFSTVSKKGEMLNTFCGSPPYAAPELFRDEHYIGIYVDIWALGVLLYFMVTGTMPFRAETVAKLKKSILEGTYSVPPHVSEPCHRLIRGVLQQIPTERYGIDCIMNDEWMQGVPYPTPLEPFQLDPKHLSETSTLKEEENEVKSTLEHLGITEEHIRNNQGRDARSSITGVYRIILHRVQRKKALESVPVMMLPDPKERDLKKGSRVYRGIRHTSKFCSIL

[24] = target: PAK2 (human) (UniProt Q13177)
[25] = target: PAK4 (human) (UniProt O96013)
[26] = test system: PIK3CA (human), P42336 [E542K]
[27] = test system: PIK3CA (human), P42336 [E545A]
[28] = target: PRKACA (human) (UniProt P17612)
[29] = target: PRKCQ (human) (UniProt Q04759)
[30] = target: PTK2 (human) (UniProt Q05397)
[31] = target: RIOK1 (human) (UniProt Q9BRS2)
[32] = target: RPS6KA4 KD1 (human) (UniProt O75676)
[33] = target: RPS6KA5 KD2 (human) (UniProt O75582)
[34] = target: RPS6KA6 KD1 (human) (UniProt Q9UK32)
Chain of RPS6KA6 KD1 (human) (Q9UK32 whole entry, looked up): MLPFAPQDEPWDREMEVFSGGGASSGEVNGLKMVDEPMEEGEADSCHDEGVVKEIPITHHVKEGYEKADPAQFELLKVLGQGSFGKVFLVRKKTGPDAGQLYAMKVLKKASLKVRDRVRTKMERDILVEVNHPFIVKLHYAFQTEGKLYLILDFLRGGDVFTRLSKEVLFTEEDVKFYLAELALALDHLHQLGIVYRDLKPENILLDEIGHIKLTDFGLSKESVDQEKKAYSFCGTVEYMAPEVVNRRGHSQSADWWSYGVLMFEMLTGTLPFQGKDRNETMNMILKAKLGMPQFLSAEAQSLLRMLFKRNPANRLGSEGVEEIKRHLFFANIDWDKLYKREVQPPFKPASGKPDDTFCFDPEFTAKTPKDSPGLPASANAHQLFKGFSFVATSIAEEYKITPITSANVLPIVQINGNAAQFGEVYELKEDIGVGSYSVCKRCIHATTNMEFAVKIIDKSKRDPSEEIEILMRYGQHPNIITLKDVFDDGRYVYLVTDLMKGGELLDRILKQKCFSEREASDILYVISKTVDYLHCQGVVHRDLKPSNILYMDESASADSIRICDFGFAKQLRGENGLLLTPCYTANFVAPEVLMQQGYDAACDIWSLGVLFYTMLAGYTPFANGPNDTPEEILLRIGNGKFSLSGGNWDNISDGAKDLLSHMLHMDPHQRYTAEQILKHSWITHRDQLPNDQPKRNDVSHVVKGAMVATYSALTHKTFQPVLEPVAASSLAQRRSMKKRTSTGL

[35] = target: STK32B (human) (UniProt Q9NY57)
Chain of STK32B (human) (Q9NY57 whole entry, looked up): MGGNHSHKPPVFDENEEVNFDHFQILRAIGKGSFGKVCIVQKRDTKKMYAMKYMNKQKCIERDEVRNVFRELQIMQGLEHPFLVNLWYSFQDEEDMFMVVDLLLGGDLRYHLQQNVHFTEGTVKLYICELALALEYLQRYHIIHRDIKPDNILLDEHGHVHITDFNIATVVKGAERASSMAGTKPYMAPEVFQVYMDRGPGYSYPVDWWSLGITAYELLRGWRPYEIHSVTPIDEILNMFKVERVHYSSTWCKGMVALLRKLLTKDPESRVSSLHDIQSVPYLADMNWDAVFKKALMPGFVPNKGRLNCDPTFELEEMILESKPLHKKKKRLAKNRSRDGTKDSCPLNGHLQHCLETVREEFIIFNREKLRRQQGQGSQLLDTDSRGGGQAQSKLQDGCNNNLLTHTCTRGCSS

[36] = target: STK32C (human) (UniProt Q86UX6)
[37] = target: STK4 (human) (UniProt Q13043)
[38] = target: TGFBR2 (human) (UniProt P37173)
[39] = target: TLK1 (human) (UniProt Q9UKI8)
Chain of TLK1 (human) (Q9UKI8 whole entry, looked up): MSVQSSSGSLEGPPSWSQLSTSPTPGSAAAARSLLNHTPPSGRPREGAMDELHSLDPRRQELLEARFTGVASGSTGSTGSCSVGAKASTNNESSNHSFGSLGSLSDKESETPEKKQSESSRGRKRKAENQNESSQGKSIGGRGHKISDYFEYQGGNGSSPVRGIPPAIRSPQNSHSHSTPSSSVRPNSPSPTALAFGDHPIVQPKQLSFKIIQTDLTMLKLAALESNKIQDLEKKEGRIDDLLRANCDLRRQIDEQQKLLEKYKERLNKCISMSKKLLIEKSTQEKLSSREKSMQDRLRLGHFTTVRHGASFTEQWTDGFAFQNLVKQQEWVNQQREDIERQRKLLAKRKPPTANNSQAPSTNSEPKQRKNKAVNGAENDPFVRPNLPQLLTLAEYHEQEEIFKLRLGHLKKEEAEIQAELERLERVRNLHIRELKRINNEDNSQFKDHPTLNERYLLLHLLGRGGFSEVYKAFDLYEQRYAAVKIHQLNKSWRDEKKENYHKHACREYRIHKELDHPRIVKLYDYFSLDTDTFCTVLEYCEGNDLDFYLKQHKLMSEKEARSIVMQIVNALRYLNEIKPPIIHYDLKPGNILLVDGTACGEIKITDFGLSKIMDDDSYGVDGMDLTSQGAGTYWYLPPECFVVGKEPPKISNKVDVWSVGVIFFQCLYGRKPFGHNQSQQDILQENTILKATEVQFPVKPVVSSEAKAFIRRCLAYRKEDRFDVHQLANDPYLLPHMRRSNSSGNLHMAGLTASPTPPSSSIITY

[40] = target: ULK2 (human) (UniProt Q8IYT8)
[41] = target: WEE1 (human) (UniProt P30291)

Chain of CSNK1A1L (human) (Q8N752 whole entry, looked up): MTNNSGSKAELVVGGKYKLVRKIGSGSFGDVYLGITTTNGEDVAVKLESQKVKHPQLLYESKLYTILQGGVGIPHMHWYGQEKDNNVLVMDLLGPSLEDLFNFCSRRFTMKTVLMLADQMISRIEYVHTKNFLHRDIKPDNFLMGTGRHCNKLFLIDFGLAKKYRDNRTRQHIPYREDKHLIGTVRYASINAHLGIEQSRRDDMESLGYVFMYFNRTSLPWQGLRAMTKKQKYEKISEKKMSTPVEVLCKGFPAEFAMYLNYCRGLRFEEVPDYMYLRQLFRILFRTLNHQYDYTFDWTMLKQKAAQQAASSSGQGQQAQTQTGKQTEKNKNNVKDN
Chain of AKT3 (human) (Q9Y243 whole entry, looked up): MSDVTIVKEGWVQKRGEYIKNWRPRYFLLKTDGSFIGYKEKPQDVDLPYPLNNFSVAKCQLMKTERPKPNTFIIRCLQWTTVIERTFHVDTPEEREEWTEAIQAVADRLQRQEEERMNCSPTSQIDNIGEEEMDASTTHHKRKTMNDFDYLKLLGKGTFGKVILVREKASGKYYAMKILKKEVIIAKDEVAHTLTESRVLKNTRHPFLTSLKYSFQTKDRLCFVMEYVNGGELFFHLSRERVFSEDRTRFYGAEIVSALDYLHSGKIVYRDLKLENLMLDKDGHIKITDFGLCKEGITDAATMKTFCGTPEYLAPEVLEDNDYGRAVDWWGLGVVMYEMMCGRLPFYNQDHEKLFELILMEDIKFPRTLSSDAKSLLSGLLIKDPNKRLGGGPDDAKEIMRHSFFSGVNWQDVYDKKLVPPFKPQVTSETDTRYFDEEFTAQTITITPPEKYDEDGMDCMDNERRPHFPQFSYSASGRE

For `Cn1cc(C2=C(c3ccc(Cl)cc3Cl)C(=O)NC2=O)c2ccccc21`, which kinase still bound, per cent of control [1] is on record?
The kinase still bound, per cent of control was 90%.

And the kinase still bound, per cent of control [2]?
Its kinase still bound, per cent of control is 100%.

And the kinase still bound, per cent of control [3]?
Its kinase still bound, per cent of control is 100%.

And the kinase still bound, per cent of control [4]?
The kinase still bound, per cent of control was 58%.

And the kinase still bound, per cent of control [5]?
The kinase still bound, per cent of control was 100%.

And the kinase still bound, per cent of control [6]?
The kinase still bound, per cent of control was 100%.

And the kinase still bound, per cent of control [7]?
The kinase still bound, per cent of control was 94%.

And the kinase still bound, per cent of control [8]?
The kinase still bound, per cent of control was 35%.

And the kinase still bound, per cent of control [9]?
Its kinase still bound, per cent of control is 88%.

And the kinase still bound, per cent of control [10]?
The kinase still bound, per cent of control was 93%.

And the kinase still bound, per cent of control [11]?
The kinase still bound, per cent of control was 100%.

And the kinase still bound, per cent of control [12]?
The kinase still bound, per cent of control was 2%.

And the kinase still bound, per cent of control [13]?
The kinase still bound, per cent of control was 100%.

What about the kinase still bound, per cent of control [14] of the same compound?
Its kinase still bound, per cent of control is 90%.

And the kinase still bound, per cent of control [15]?
The kinase still bound, per cent of control was 96%.

And the kinase still bound, per cent of control [16]?
The kinase still bound, per cent of control was 72%.

And the kinase still bound, per cent of control [17]?
The kinase still bound, per cent of control was 100%.

And the kinase still bound, per cent of control [18]?
The kinase still bound, per cent of control was 100%.

What about the kinase still bound, per cent of control [19] of the same compound?
The kinase still bound, per cent of control was 100%.

And the kinase still bound, per cent of control [20]?
The kinase still bound, per cent of control was 79%.

And the kinase still bound, per cent of control [21]?
The kinase still bound, per cent of control was 100%.

What about the kinase still bound, per cent of control [22] of the same compound?
Its kinase still bound, per cent of control is 99%.

And the kinase still bound, per cent of control [23]?
The kinase still bound, per cent of control was 100%.

What about the kinase still bound, per cent of control [24] of the same compound?
The kinase still bound, per cent of control was 61%.

And the kinase still bound, per cent of control [25]?
Its kinase still bound, per cent of control is 82%.

And the kinase still bound, per cent of control [26]?
Its kinase still bound, per cent of control is 100%.

And the kinase still bound, per cent of control [27]?
Its kinase still bound, per cent of control is 100%.

What about the kinase still bound, per cent of control [28] of the same compound?
The kinase still bound, per cent of control was 100%.

And the kinase still bound, per cent of control [29]?
Its kinase still bound, per cent of control is 24%.

And the kinase still bound, per cent of control [30]?
Its kinase still bound, per cent of control is 84%.

What about the kinase still bound, per cent of control [31] of the same compound?
The kinase still bound, per cent of control was 79%.

And the kinase still bound, per cent of control [32]?
The kinase still bound, per cent of control was 100%.

And the kinase still bound, per cent of control [33]?
Its kinase still bound, per cent of control is 100%.

And the kinase still bound, per cent of control [34]?
The kinase still bound, per cent of control was 75%.

What about the kinase still bound, per cent of control [35] of the same compound?
The kinase still bound, per cent of control was 100%.

What about the kinase still bound, per cent of control [36] of the same compound?
The kinase still bound, per cent of control was 94%.

What about the kinase still bound, per cent of control [37] of the same compound?
The kinase still bound, per cent of control was 62%.

What about the kinase still bound, per cent of control [38] of the same compound?
The kinase still bound, per cent of control was 100%.

And the kinase still bound, per cent of control [39]?
The kinase still bound, per cent of control was 36%.

What about the kinase still bound, per cent of control [40] of the same compound?
Its kinase still bound, per cent of control is 96%.

And the kinase still bound, per cent of control [41]?
Its kinase still bound, per cent of control is 80%.

Which kinase still bound, per cent of control [1] does the source give for `COc1ccc(CNC(=O)Nc2ncc([N+](=O)[O-])s2)cc1` here?
The kinase still bound, per cent of control was 75%.

And the kinase still bound, per cent of control [2]?
The kinase still bound, per cent of control was 92%.

What about the kinase still bound, per cent of control [3] of the same compound?
The kinase still bound, per cent of control was 84%.

What about the kinase still bound, per cent of control [4] of the same compound?
Its kinase still bound, per cent of control is 100%.

And the kinase still bound, per cent of control [5]?
Its kinase still bound, per cent of control is 100%.

And the kinase still bound, per cent of control [6]?
The kinase still bound, per cent of control was 99%.

What about the kinase still bound, per cent of control [8] of the same compound?
Its kinase still bound, per cent of control is 100%.

And the kinase still bound, per cent of control [9]?
Its kinase still bound, per cent of control is 100%.

And the kinase still bound, per cent of control [10]?
Its kinase still bound, per cent of control is 86%.

What about the kinase still bound, per cent of control [11] of the same compound?
Its kinase still bound, per cent of control is 98%.

And the kinase still bound, per cent of control [12]?
The kinase still bound, per cent of control was 11%.

And the kinase still bound, per cent of control [13]?
Its kinase still bound, per cent of control is 81%.

What about the kinase still bound, per cent of control [14] of the same compound?
The kinase still bound, per cent of control was 76%.

What about the kinase still bound, per cent of control [15] of the same compound?
The kinase still bound, per cent of control was 100%.

What about the kinase still bound, per cent of control [16] of the same compound?
The kinase still bound, per cent of control was 97%.

And the kinase still bound, per cent of control [17]?
The kinase still bound, per cent of control was 100%.

What about the kinase still bound, per cent of control [18] of the same compound?
Its kinase still bound, per cent of control is 71%.

And the kinase still bound, per cent of control [19]?
Its kinase still bound, per cent of control is 100%.

And the kinase still bound, per cent of control [20]?
The kinase still bound, per cent of control was 97%.

What about the kinase still bound, per cent of control [21] of the same compound?
The kinase still bound, per cent of control was 63%.

And the kinase still bound, per cent of control [22]?
Its kinase still bound, per cent of control is 100%.

And the kinase still bound, per cent of control [23]?
Its kinase still bound, per cent of control is 100%.

And the kinase still bound, per cent of control [24]?
Its kinase still bound, per cent of control is 87%.

And the kinase still bound, per cent of control [25]?
Its kinase still bound, per cent of control is 74%.

What about the kinase still bound, per cent of control [26] of the same compound?
The kinase still bound, per cent of control was 100%.

And the kinase still bound, per cent of control [27]?
The kinase still bound, per cent of control was 94%.

And the kinase still bound, per cent of control [28]?
The kinase still bound, per cent of control was 96%.

And the kinase still bound, per cent of control [29]?
The kinase still bound, per cent of control was 100%.

What about the kinase still bound, per cent of control [30] of the same compound?
Its kinase still bound, per cent of control is 91%.

What about the kinase still bound, per cent of control [31] of the same compound?
The kinase still bound, per cent of control was 100%.

And the kinase still bound, per cent of control [32]?
Its kinase still bound, per cent of control is 98%.

And the kinase still bound, per cent of control [33]?
Its kinase still bound, per cent of control is 100%.

What about the kinase still bound, per cent of control [34] of the same compound?
The kinase still bound, per cent of control was 100%.

What about the kinase still bound, per cent of control [35] of the same compound?
Its kinase still bound, per cent of control is 100%.

What about the kinase still bound, per cent of control [36] of the same compound?
The kinase still bound, per cent of control was 76%.

And the kinase still bound, per cent of control [37]?
The kinase still bound, per cent of control was 100%.

What about the kinase still bound, per cent of control [38] of the same compound?
The kinase still bound, per cent of control was 70%.

And the kinase still bound, per cent of control [39]?
Its kinase still bound, per cent of control is 96%.

What about the kinase still bound, per cent of control [40] of the same compound?
Its kinase still bound, per cent of control is 100%.

What about the kinase still bound, per cent of control [41] of the same compound?
Its kinase still bound, per cent of control is 80%.
